# Changes are numbered by the printed parent chain.
# What was measured:
# GlyT2 Y430L mutant = target: T1, GlyT2 Y430L mutant (Homo sapiens, UniProt Q9Y345, Y430L); experiment: Inhibitor concentration–responses on glycine transport currents, two-electrode voltage clamp; assay type: cell-based; set-up: expressed in transfected cells; host or cells: Xenopus laevis oocytes injected with mutant RNA (pOTV vector); conditions: for IC50: Y430L GlyT2 in Xenopus laevis oocytes
# T1 sequence (Q9Y345 1-797 Y430L): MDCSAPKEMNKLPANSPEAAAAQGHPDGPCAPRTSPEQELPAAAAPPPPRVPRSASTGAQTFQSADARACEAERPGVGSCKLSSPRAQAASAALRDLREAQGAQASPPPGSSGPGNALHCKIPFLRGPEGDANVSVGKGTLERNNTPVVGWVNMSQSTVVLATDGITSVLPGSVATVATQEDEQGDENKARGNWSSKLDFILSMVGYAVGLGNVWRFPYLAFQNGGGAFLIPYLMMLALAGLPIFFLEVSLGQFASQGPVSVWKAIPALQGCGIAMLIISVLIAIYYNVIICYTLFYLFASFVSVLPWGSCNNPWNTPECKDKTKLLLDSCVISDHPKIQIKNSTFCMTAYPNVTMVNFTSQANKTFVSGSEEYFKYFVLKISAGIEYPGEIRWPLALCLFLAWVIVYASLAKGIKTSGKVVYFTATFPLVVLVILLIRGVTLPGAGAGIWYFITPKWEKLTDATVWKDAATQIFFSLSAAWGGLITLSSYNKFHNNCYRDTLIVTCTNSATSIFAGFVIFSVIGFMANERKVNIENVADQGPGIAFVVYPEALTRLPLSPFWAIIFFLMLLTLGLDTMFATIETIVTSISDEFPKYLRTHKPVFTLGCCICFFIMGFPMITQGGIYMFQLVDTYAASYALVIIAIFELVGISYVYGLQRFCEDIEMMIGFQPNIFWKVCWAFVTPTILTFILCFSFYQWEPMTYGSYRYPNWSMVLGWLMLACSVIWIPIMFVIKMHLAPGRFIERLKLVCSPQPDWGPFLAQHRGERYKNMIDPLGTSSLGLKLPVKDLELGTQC
# Method: (§1) Because of the slowly reversible nature of the compounds tested, inhibitor concentration–responses were performed cumulatively. An EC50 concentration of glycine was applied until a stable transport current was reached. EC50 concentrations of glycine were used to produce reliable currents for each transporter, and as the inhibitors are non-competitive, application of varying glycine concentrations is unlikely to affect their activity. Increasing concentrations of inhibitors were co-applied with glycine with each concentration producing a distinct plateau before the subsequent concentration was applied. Inhibitor concentration–responses were limited to a maximum concentration of 3 µM to mitigate the risk of changes to the free drug concentration because of micelle formation. Currents after the plateau of each inhibitor concentration were normalized to the current produced by application of glycine alone and fit using the method of least squares: Y=Bottom+(Top−Bottom)/(1+10^[X−LogIC50]), where X is log [inhibitor], Y is current normalized to glycine in the absence of inhibitor, and Top and Bottom are the maximal and minimal plateaus, respectively. The method of least squares was constrained to have the bottom value >0 and the hill slope as −1, enabling the calculation of IC50 values and the extent of inhibition produced by the maximal concentration applied.
# (§2) IC50 values are presented as the mean and 95% confidence interval, whereas inhibition values are presented as the mean ± SEM. Data sets are n ≥ 5 from two batches of oocytes.
# GlyT2 Y430F mutant = target: T2, GlyT2 Y430F mutant (Homo sapiens, UniProt Q9Y345, Y430F); experiment: as above; assay type: cell-based; set-up: expressed in transfected cells; host or cells: Xenopus laevis oocytes injected with mutant RNA (pOTV vector); conditions: for IC50: Y430F GlyT2 in Xenopus laevis oocytes
# T2 sequence (Q9Y345 1-797 Y430F): T1 sequence (Q9Y345 1-797 Y430L) with L430F
# Method: as §1, §2
IC50 (GlyT2 Y430L mutant) [nM],Inhibition at 3 μM (GlyT2 Y430L mutant; Y430L) [%],IC50 (GlyT2 Y430F mutant) [nM],Inhibition at 3 μM (GlyT2 Y430F mutant; Y430F) [%],IC50 (GlyT2 Y430L mutant; 95% CI could not be fit) [nM],"Inhibition at 1 µM (column head 3 μM, footnote b) (GlyT2 Y430L mutant; Y430L, 1 µM)","Inhibition at 1 µM (column head 3 μM, footnote b) (GlyT2 Y430F mutant; Y430F, 1 µM)",IC50 (GlyT2 Y430L mutant; listed as OLLys) [nM],Reduction of potency compared with WT (GlyT2 Y430L mutant; Y430L vs WT),SMILES
375,63.8 ± 2.6,203,76.7 ± 2.8,,,,,,"CCCCCCCC/C=C\CCCCCCCC(=O)N[C@@H](CC(C)C)C(=O)O [Oleoyl-L-Leucine, oleoyl-L-leucine]"
57,83.5 ± 3.2,125,84.5 ± 3.6,,,,,,"CCCCCCCC/C=C\CCCCCCCC(=O)N[C@@H](Cc1c[nH]c2ccccc12)C(=O)O [Oleoyl-L-Tryptophan, oleoyl-L-tryptophan]"
,,190,,1100,49.6 ± 2.9^b %,71.0 ± 3.3^*b %,,,"CCCCCCCC/C=C\CCCCCCCC(=O)O[C@H](CC(=O)[O-])C[N+](C)(C)C [Oleoyl-L-Carnitine, oleoyl-L-carnitine]"
863,69.7 ± 4.7,123,92.9 ± 1.7,,,,860,fourfold,"CCCCCCCC/C=C\CCCCCCCC(=O)N[C@@H](CCCCN)C(=O)O [Oleoyl-L-Lysine, oleoyl-L-lysine]"

# Source: paper PMC9873984, “Membrane cholesterol regulates inhibition and substrate transport by the glycine transporter, GlyT2” (Life Science Alliance, 2023)
